Measurements published in patent publication US6479435B1, “Diaryl ethers and processes for their preparation and herbicidal and desiccant compositions containing them” (ISK Americas Incorporated, priority 1997, dated 2002).

What was measured:
Type in all cases: in vivo
[1] = tested on: soybean (Glycine max L., var. Pella 86, SOY); experiment: Pre-emerge greenhouse test, crop damage rating; details: 14 days after application, rating scale 0-100
Procedure, shortened: (§1)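 Seeds sown in sandy loam mix one day before track-sprayer application of compounds in acetone at 125–1000 g ai/ha (187 l/ha), then surface-watered to incorporate and bottom-watered. Visual rating 14 days after application on a 0–100 scale (0 = no damage, 100 = all plants dead).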

[2] = tested on: large crabgrass (Digitaria sanguinalis, DIGSA); experiment: Pre-emerge greenhouse herbicide test, phytotoxicity rating; details: 14 days after application, rating scale 0-100
Procedure, shortened: as §1

[3] = tested on: velvetleaf (Abutilon theophrasti, ABUTH); experiment: as above; details: 14 days after application, rating scale 0-100
Procedure, shortened: as §1

[4] = tested on: common ragweed (Ambrosia artemisiifolia L., AMBEL); experiment: as above; details: 14 days after application, rating scale 0-100
Procedure, shortened: as §1

[5] = tested on: ivyleaf morningglory (Ipomoea hederacea, IPOHE); experiment: as above; details: 14 days after application, rating scale 0-100
Procedure, shortened: as §1

[6] = tested on: lambsquarters (Chenopodium album, CHEAL); experiment: as above; details: 14 days after application, rating scale 0-100
Procedure, shortened: as §1

[7] = tested on: redroot pigweed (Amaranthus retroflexus, AMARE); experiment: as above; details: 14 days after application, rating scale 0-100
Procedure, shortened: as §1

[8] = tested on: green foxtail (Setaria viridis, SETVI); experiment: as above; details: 14 days after application, rating scale 0-100
Procedure, shortened: as §1

[9] = tested on: sicklepod (Cassia obtusifolia, CASOB); experiment: as above; details: 14 days after application, rating scale 0-100
Procedure, shortened: as §1

[10] = tested on: barnyardgrass (Echinochloa crusgalli, ECHCG); experiment: as above; details: 14 days after application, rating scale 0-100
Procedure, shortened: as §1

[11] = tested on: Johnsongrass (Sorghum halepense, SORHA); experiment: as above; details: 14 days after application, rating scale 0-100
Procedure, shortened: as §1

[12] = tested on: upland rice (Oryza sp., var.Tebonnet, RICE); experiment: Post-emerge greenhouse test, crop damage rating; details: 14 days after application
Procedure, shortened: (§2)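 Compounds in acetone with 0.25% v/v non-ionic surfactant were track-sprayed at 187 l/ha over plants at the 2-3 leaf stage, at 63 to 1000 g ai/ha. Pots were bottom-watered. Injury was scored visually 14 days later on a 0-100 scale, where 0 is no damage and 100 is complete plant death.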

[13] = tested on: field corn (Zea mays L., var. Dekalb 535, CORN); experiment: Post-emerge greenhouse test, crop damage rating; details: 14 days after application
Procedure, shortened: as §2

[14] = tested on: common ragweed (Ambrosia artemisiifolia L., AMBEL); experiment: Post-emerge greenhouse herbicide test, phytotoxicity rating; details: 14 days after application
Procedure, shortened: as §2

[15] = tested on: upland rice (Oryza sp., var.Tebonnet, RICE); experiment: Pre-emerge greenhouse test, crop damage rating; details: 125 g ai/ha, 14 days after application, rating scale 0-100
Procedure, shortened: as §1

[16] = tested on: field corn (Zea mays L., var. Dekalb 535, CORN); experiment: Pre-emerge greenhouse test, crop damage rating; details: 14 days after application, rating scale 0-100
Procedure, shortened: as §1

[17] = tested on: large crabgrass (Digitaria sanguinalis, DIGSA); experiment: Post-emerge greenhouse herbicide test, phytotoxicity rating; details: 14 days after application
Procedure, shortened: as §2

[18] = tested on: velvetleaf (Abutilon theophrasti, ABUTH); experiment: as above; details: 14 days after application
Procedure, shortened: as §2

[19] = tested on: ivyleaf morningglory (Ipomoea hederacea, IPOHE); experiment: as above; details: 14 days after application
Procedure, shortened: as §2

[20] = tested on: lambsquarters (Chenopodium album, CHEAL); experiment: as above; details: 14 days after application
Procedure, shortened: as §2

[21] = tested on: redroot pigweed (Amaranthus retroflexus, AMARE); experiment: as above; details: 14 days after application
Procedure, shortened: as §2

[22] = tested on: green foxtail (Setaria viridis, SETVI); experiment: as above; details: 14 days after application
Procedure, shortened: as §2

[23] = tested on: barnyardgrass (Echinochloa crusgalli, ECHCG); experiment: as above; details: 14 days after application
Procedure, shortened: as §2

[24] = tested on: Johnsongrass (Sorghum halepense, SORHA); experiment: as above; details: 14 days after application
Procedure, shortened: as §2

[25] = tested on: soybean (Glycine max L., var. Pella 86, SOY); experiment: Post-emerge greenhouse test, crop damage rating; details: 14 days after application
Procedure, shortened: as §2

SMILES: Cn1nc(-c2cc(Oc3ccc(C#N)cn3)c(Cl)cc2F)c(Cl)c1C(F)(F)F [Compound 1-4]
- crop damage rating SOY ([1]; 125 g ai/ha): 10
- crop damage rating SOY ([1]; 500 g ai/ha): 0
- phytotoxicity rating DIGSA ([2]; 125 g ai/ha): 50
- phytotoxicity rating DIGSA ([2]; 500 g ai/ha): 50
- phytotoxicity rating ABUTH ([3]; 125 g ai/ha): 0
- phytotoxicity rating ABUTH ([3]; 500 g ai/ha): 80
- phytotoxicity rating AMBEL ([4]; 125 g ai/ha): 0
- phytotoxicity rating AMBEL ([4]; 500 g ai/ha): 20
- phytotoxicity rating IPOHE ([5]; 125 g ai/ha): 0
- phytotoxicity rating IPOHE ([5]; 500 g ai/ha): 30
- phytotoxicity rating CHEAL ([6]; 125 g ai/ha): 90
- phytotoxicity rating CHEAL ([6]; 500 g ai/ha): 95
- phytotoxicity rating AMARE ([7]; 125 g ai/ha): 100
- phytotoxicity rating AMARE ([7]; 500 g ai/ha): 100
- phytotoxicity rating SETVI ([8]; 125 g ai/ha): 90
- phytotoxicity rating SETVI ([8]; 500 g ai/ha): 99
- phytotoxicity rating CASOB ([9]; 125 g ai/ha): 0
- phytotoxicity rating CASOB ([9]; 500 g ai/ha): 0
- phytotoxicity rating ECHCG ([10]; 125 g ai/ha): 0
- phytotoxicity rating ECHCG ([10]; 500 g ai/ha): 20
- phytotoxicity rating SORHA ([11]; 125 g ai/ha): 20
- phytotoxicity rating SORHA ([11]; 500 g ai/ha): 95
- RICE crop damage rating (0-100) ([12]; 63 g al/ha): 20
- RICE crop damage rating (0-100) ([12]; 500 g al/ha): 50
- CORN crop damage rating (0-100) ([13]; 63 g al/ha): 0
- CORN crop damage rating (0-100) ([13]; 500 g al/ha): 0
- AMBEL phytotoxicity rating (0-100) ([14]; 63 g al/ha): 20
- AMBEL phytotoxicity rating (0-100) ([14]; 500 g al/ha): 70
- crop damage rating RICE [15]: 30
- crop damage rating CORN ([16]; 125 g ai/ha): 10
- crop damage rating CORN ([16]; 500 g ai/ha): 0
- DIGSA phytotoxicity rating (0-100) ([17]; 63 g al/ha): 20
- DIGSA phytotoxicity rating (0-100) ([17]; 500 g al/ha): 40
- ABUTH phytotoxicity rating (0-100) ([18]; 63 g al/ha): 30
- ABUTH phytotoxicity rating (0-100) ([18]; 500 g al/ha): 90
- IPOHE phytotoxicity rating (0-100) ([19]; 63 g al/ha): 70
- IPOHE phytotoxicity rating (0-100) ([19]; 500 g al/ha): 100
- CHEAL phytotoxicity rating (0-100) ([20]; 63 g al/ha): 0
- CHEAL phytotoxicity rating (0-100) ([20]; 500 g al/ha): 100
- AMARE phytotoxicity rating (0-100) ([21]; 63 g al/ha): 100
- AMARE phytotoxicity rating (0-100) ([21]; 500 g al/ha): 100
- SETVI phytotoxicity rating (0-100) ([22]; 63 g al/ha): 0
- SETVI phytotoxicity rating (0-100) ([22]; 500 g al/ha): 70
- ECHCG phytotoxicity rating (0-100) ([23]; 63 g al/ha): 0
- ECHCG phytotoxicity rating (0-100) ([23]; 500 g al/ha): 50
- SORHA phytotoxicity rating (0-100) ([24]; 63 g al/ha): 40
- SORHA phytotoxicity rating (0-100) ([24]; 500 g al/ha): 80
- SOY crop damage rating (0-100) ([25]; 63 g al/ha): 0
- SOY crop damage rating (0-100) ([25]; 500 g al/ha): 80
